Experimental data reported in ChEMBL document CHEMBL1141051, “Antiviral 6-amino-quinolones: molecular basis for potency and selectivity” (Bioorg Med Chem Lett, 2005).

Legend:
[1] = target: T1, Protein Tat (Human immunodeficiency virus type 1 group M subtype B (isolate HXB2)(HIV-1)) (UniProt P04608); assay: Binding constant (K) against Tat/TAR using 1:1 quinolone/Mg2+ complex done at 25 degree C with pH 7.5; details: Human immunodeficiency virus 1
T1 sequence (whole entry): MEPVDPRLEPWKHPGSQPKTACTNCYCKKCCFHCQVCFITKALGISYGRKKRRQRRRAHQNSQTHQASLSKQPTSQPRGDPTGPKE

Nucleic Acid [2] = assay: Effective concentration required for binding to mutant loopless TAR using electrophoretic mobility shift assays done at 25 degree C with pH 7.5; assay type: nucleic-acid assay, Human immunodeficiency virus 1
Nucleic Acid [3] = assay: Effective concentration required for binding to tRNA using electrophoretic mobility shift assays done at 25 degree C with pH 7.5; assay type: nucleic-acid assay, Human immunodeficiency virus 1
Nucleic Acid [4] = assay: Effective concentration required for binding to wild-type TAR using electrophoretic mobility shift assays done at 25 degree C with pH 7.5; assay type: nucleic-acid assay, Human immunodeficiency virus 1
Nucleic Acid [5] = assay: Effective concentration required for binding to mutant double stranded TAR using electrophoretic mobility shift assays done at 25 degree C with pH 7.5; assay type: nucleic-acid assay, Human immunodeficiency virus 1

For `O=C(O)c1cn(C2CC2)c2cc(N3CCNCC3)c(F)cc2c1=O`, the K [1] was 790 M⁻¹.
For `Cn1cc(C(=O)O)c(=O)c2cc(N)c(N3CCN(c4ccccn4)CC3)cc21`, the EC50 (Nucleic Acid [2]) was 320 nM, the K [1] was 6650 M⁻¹ and the EC50 (Nucleic Acid [3]) was greater than 50000 nM. For the same compound, the EC50 (Nucleic Acid [4]) was 210 nM.
`Nc1cc2c(=O)c(C(=O)O)cn(C3CC3)c2cc1N1CCN(c2cccc(C(F)(F)F)c2)CC1` was tested, and the EC50 (Nucleic Acid [5]) was 50 nM, the K [1] was 13600 M⁻¹ and the EC50 (Nucleic Acid [3]) was 130 nM. The EC50 (Nucleic Acid [4]) was 190 nM.
